Data from US10611740B2, “Aryl dihydro-2H-benzo[b][1,4]oxazine sulfonamide and related compounds for use as agonists of RORγ and the treatment of disease” (Lycera Corporation, priority 2015, dated 2020).

Tests used:
Gal4-RORγ-LBD = molecular target: T1, Gal4-RORγ-LBD (Homo sapiens, UniProt P51449); test: Gal4-RORγ Luciferase Reporter Assay in HEK-293T Cells; format: cell-based; details: HEK-293 cells, luciferase reporter, with 2 μM ursolic acid
T1 construct: expressed in transfected cells; host or cells: HEK-293 cells (pcDNA3.1neo plasmid)
T1 sequence (P51449 269-508 limits assumed): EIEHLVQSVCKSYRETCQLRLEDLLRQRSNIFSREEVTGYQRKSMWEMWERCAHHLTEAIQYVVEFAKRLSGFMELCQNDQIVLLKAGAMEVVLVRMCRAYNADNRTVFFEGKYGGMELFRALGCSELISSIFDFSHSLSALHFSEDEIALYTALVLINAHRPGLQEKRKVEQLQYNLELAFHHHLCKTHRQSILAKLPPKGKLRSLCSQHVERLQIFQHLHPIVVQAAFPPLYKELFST
How it was run: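 HEK-293 cells were transiently co-transfected with Gal4-RORγ-LBD and pGL4.31 Gal4-luciferase, with ursolic acid added at 2 μM final. Compounds were incubated overnight at 37° C. in 0.2% DMSO and luminescence read with One-Glo. Max Response is the upper plateau of a 4-parameter logistic fit, with signal lacking ursolic acid or compound set to 100.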

RORγ-LBD = molecular target: T2, RORγ-LBD (Homo sapiens, UniProt P51449); test: RORγ-Ligand Binding Domain (LBD) TR-FRET Assay; format: biochemical;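 as to TR-FRET Assay Max Response: 665/615 nm ratio relative to signal without ursolic acid or compound set at 100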
T2 construct: made in house; host or cells: SF9 cells (baculovirus)
T2 sequence (P51449 269-508 limits assumed): T1 sequence (P51449 269-508 limits assumed)
How it was run: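 His-tagged RORγ-LBD from SF9 baculovirus lysate, ~3 nM final, in 50 mM Tris pH 7.0, 50 mM KCl, 1 mM EDTA, 0.1 mM DTT, 0.01% BSA. Biotinylated SRC1 LXXLL peptide at 200 nM final with 2 μM ursolic acid; TR-FRET read-out, 1% DMSO final.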

Row | Compound | EC50 (Gal4-RORγ-LBD) [nM] | Gal4-RORγ Assay Max Response (Gal4-RORγ-LBD) | EC50 (RORγ-LBD) [nM] | TR-FRET Assay Max Response (RORγ-LBD)
1 | COc1ncccc1-c1ccc2c(c1)N(S(=O)(=O)c1cccc(C(F)(F)F)c1)C[C@H](CCC(=O)O)O2 [Compound 2BG, (S)-3-(6-(2-methoxypyridin-3-yl)-4-((3-(trifluoromethyl)-phenyl)sulfonyl)-3,4-dihydro-2H-benzo[b][1,4]oxazin-2-yl)propanoic acid] | 500 to 5000 | ** (The symbol “**” indicates a value in the range of greater than 90 to 150) | < 500 | *** (The symbol “***” indicates a value in the range of greater than 150 to 200)
2 | CC(C)Cn1cc(-c2ccc3c(c2)N(S(=O)(=O)c2cccc(C(F)(F)F)c2)C[C@H](CCC(=O)O)O3)cn1 [Compound 2BH, (S)-3-(6-(1-isobutyl-1H-pyrazol-4-yl)-4-((3-(trifluoromethyl)-phenyl)sulfonyl)-3,4-dihydro-2H-benzo[b][1,4]oxazin-2-yl)propanoic acid] | > 10000 | – | 500 to 5000 | ** (The symbol “**” indicates a value in the range of greater than 90 to 150)
3 | CS(=O)(=O)c1ccccc1-c1ccc2c(c1)N(S(=O)(=O)c1cccc(C(F)(F)F)c1)C[C@H](CCC(=O)O)O2 [Compound 2BI, (S)-3-(6-(2-(methylsulfonyl)-phenyl)-4-((3-(trifluoromethyl)-phenyl)sulfonyl)-3,4-dihydro-2H-benzo[b][1,4]oxazin-2-yl)propanoic acid] | 500 to 5000 | ** (The symbol “**” indicates a value in the range of greater than 90 to 150) | 500 to 5000 | *** (The symbol “***” indicates a value in the range of greater than 150 to 200)
4 | COc1cccc(C#N)c1-c1ccc2c(c1)N(S(=O)(=O)c1cccc(C(F)(F)F)c1)C[C@H](CCC(=O)O)O2 [Compound 2BJ, (S)-3-(6-(2-cyano-6-methoxy-phenyl)-4-((3-(trifluoromethyl)-phenyl)sulfonyl)-3,4-dihydro-2H-benzo[b][1,4]oxazin-2-yl)propanoic acid] | > 10000 | ** (The symbol “**” indicates a value in the range of greater than 90 to 150) | > 10000 | –
5 | Cc1ccc(Cl)c(-c2ccc3c(c2)N(S(=O)(=O)c2cccc(C(F)(F)F)c2)C[C@H](CCC(=O)O)O3)c1 [Compound 2BK, (S)-3-(6-(2-chloro-5-methyl-phenyl)-4-((3-(trifluoromethyl)-phenyl)sulfonyl)-3,4-dihydro-2H-benzo[b][1,4]oxazin-2-yl)propanoic acid] | < 500 | ** (The symbol “**” indicates a value in the range of greater than 90 to 150) | < 500 | *** (The symbol “***” indicates a value in the range of greater than 150 to 200)
6 | Cc1ccc(F)c(-c2ccc3c(c2)N(S(=O)(=O)c2cccc(C(F)(F)F)c2)C[C@H](CCC(=O)O)O3)c1 [Compound 2BL, (S)-3-(6-(2-fluoro-5-methyl-phenyl)-4-((3-(trifluoromethyl)-phenyl)sulfonyl)-3,4-dihydro-2H-benzo[b][1,4]oxazin-2-yl)propanoic acid] | < 500 | ** (The symbol “**” indicates a value in the range of greater than 90 to 150) | < 500 | *** (The symbol “***” indicates a value in the range of greater than 150 to 200)
7 | O=C(O)CC[C@H]1CN(S(=O)(=O)c2cccc(C(F)(F)F)c2)c2cc(-c3ccccc3C(F)(F)F)ccc2O1 [Compound 2BM, (S)-3-(6-(2-(trifluoromethyl)-phenyl)-4-((3-(trifluoromethyl)-phenyl)sulfonyl)-3,4-dihydro-2H-benzo[b][1,4]oxazin-2-yl)propanoic acid] | 500 to 5000 | ** (The symbol “**” indicates a value in the range of greater than 90 to 150) | < 500 | *** (The symbol “***” indicates a value in the range of greater than 150 to 200)
